In the supplement of paper PMC10307832:

Key:
Assay in all cases: relative viability (nuclei count vs DMSO), 5 days (fraction); higher = more cells survive
Vemurafenib + Navitoclax = compound: CCCS(=O)(=O)Nc1ccc(F)c(C(=O)c2c[nH]c3ncc(-c4ccc(Cl)cc4)cc23)c1F [Vemurafenib] + CC1(C)CCC(c2ccc(Cl)cc2)=C(CN2CCN(c3ccc(C(=O)NS(=O)(=O)c4ccc(N[C@H](CCN5CCOCC5)CSc5ccccc5)c(S(=O)(=O)C(F)(F)F)c4)cc3)CC2)C1 [Navitoclax] (partner 0.5 µM)
How it was run: (§1)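 Lung cancer cell lines in 1536-well plates were dosed by pin tool the day after seeding, either with one drug alone or with a fixed anchor-drug dose plus five library-drug doses (not always all listed) in √10 steps. After 5 days, cells were fixed and their nuclei stained in one step (final 0.05% Triton X-100, 1% formaldehyde, 1 ug/ml Hoechst), then counted on 4× images. Relative viability is the nuclei count in treated wells divided by that in vehicle wells. Values are medians of duplicate plates.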

OSI-027 + Bortezomib = compound: COc1cccc2cc(-c3nc([C@H]4CC[C@H](C(=O)O)CC4)n4ncnc(N)c34)[nH]c12 [OSI-027] + CC(C)C[C@H](NC(=O)[C@H](Cc1ccccc1)NC(=O)c1cnccn1)B(O)O [Bortezomib] (partner 0.002 µM)
How it was run: as §1

OSI-027 + AZD7762 = compound: COc1cccc2cc(-c3nc([C@H]4CC[C@H](C(=O)O)CC4)n4ncnc(N)c34)[nH]c12 [OSI-027] + NC(=O)Nc1cc(-c2cccc(F)c2)sc1C(=O)N[C@H]1CCCNC1 [AZD7762] (partner 0.2 µM)
How it was run: as §1

Alpelisib + Lapatinib = compound: Cc1nc(NC(=O)N2CCC[C@H]2C(N)=O)sc1-c1ccnc(C(C)(C)C(F)(F)F)c1 [Alpelisib] + CS(=O)(=O)CCNCc1ccc(-c2ccc3ncnc(Nc4ccc(OCc5cccc(F)c5)c(Cl)c4)c3c2)o1 [Lapatinib] (partner 2 µM)
How it was run: as §1

NCI-H2347 was tested, and the relative viability (Vemurafenib + Navitoclax; first compound 0.03162 µM) was 0.633, the relative viability (Vemurafenib + Navitoclax; first compound 0.1 µM) was 0.78 and the relative viability (Vemurafenib + Navitoclax; first compound 0.3162 µM) was 0.7. For the same cell line, the relative viability (Vemurafenib + Navitoclax; first compound 1 µM) was 0.75, the relative viability (OSI-027 + Bortezomib; first compound 0.01 µM) was 0.857 and the relative viability (OSI-027 + Bortezomib; first compound 0.03162 µM) was 0.904. For the same cell line, the relative viability (OSI-027 + Bortezomib; first compound 0.1 µM) was 0.741, the relative viability (OSI-027 + Bortezomib; first compound 0.3162 µM) was 0.601 and the relative viability (OSI-027 + Bortezomib; first compound 1 µM) was 0.493. It also gave a relative viability (OSI-027 + AZD7762; first compound 0.01 µM) of 0.683, a relative viability (OSI-027 + AZD7762; first compound 0.03162 µM) of 0.733 and a relative viability (OSI-027 + AZD7762; first compound 0.1 µM) of 0.756. For the same cell line, the relative viability (OSI-027 + AZD7762; first compound 0.3162 µM) was 0.595, the relative viability (OSI-027 + AZD7762; first compound 1 µM) was 0.299 and the relative viability (Alpelisib + Lapatinib; first compound 0.04 µM) was 0.991. The relative viability (Alpelisib + Lapatinib; first compound 0.1265 µM) was 0.989, the relative viability (Alpelisib + Lapatinib; first compound 0.4 µM) was 1.33 and the relative viability (Alpelisib + Lapatinib; first compound 1.265 µM) was 0.873. The relative viability (Alpelisib + Lapatinib; first compound 4 µM) was 0.83.

NCI-H2405 gave a relative viability (Vemurafenib + Navitoclax; first compound 0.03162 µM) of 0.836, a relative viability (Vemurafenib + Navitoclax; first compound 0.1 µM) of 0.812 and a relative viability (Vemurafenib + Navitoclax; first compound 1 µM) of 0.864. It also gave a relative viability (OSI-027 + Bortezomib; first compound 0.01 µM) of 0.982, a relative viability (OSI-027 + Bortezomib; first compound 0.03162 µM) of 1.04 and a relative viability (OSI-027 + Bortezomib; first compound 0.1 µM) of 0.872. The relative viability (OSI-027 + Bortezomib; first compound 0.3162 µM) was 0.866, the relative viability (OSI-027 + Bortezomib; first compound 1 µM) was 0.425 and the relative viability (OSI-027 + AZD7762; first compound 0.01 µM) was 0.701. The relative viability (OSI-027 + AZD7762; first compound 0.03162 µM) was 0.836, the relative viability (OSI-027 + AZD7762; first compound 0.1 µM) was 0.699 and the relative viability (OSI-027 + AZD7762; first compound 0.3162 µM) was 0.598. The relative viability (OSI-027 + AZD7762; first compound 1 µM) was 0.376, the relative viability (Alpelisib + Lapatinib; first compound 0.04 µM) was 1.07 and the relative viability (Alpelisib + Lapatinib; first compound 0.1265 µM) was 0.945. For the same cell line, the relative viability (Alpelisib + Lapatinib; first compound 0.4 µM) was 1.18, the relative viability (Alpelisib + Lapatinib; first compound 1.265 µM) was 0.783 and the relative viability (Alpelisib + Lapatinib; first compound 4 µM) was 0.781.

With NCI-H3122 the relative viability (Vemurafenib + Navitoclax; first compound 0.03162 µM) was 1.04, the relative viability (Vemurafenib + Navitoclax; first compound 0.1 µM) was 0.993 and the relative viability (Vemurafenib + Navitoclax; first compound 0.3162 µM) was 1.02. It also gave a relative viability (Vemurafenib + Navitoclax; first compound 1 µM) of 1.1, a relative viability (OSI-027 + Bortezomib; first compound 0.01 µM) of 1.11 and a relative viability (OSI-027 + Bortezomib; first compound 0.03162 µM) of 1.04. The relative viability (OSI-027 + Bortezomib; first compound 0.1 µM) was 1.11, the relative viability (OSI-027 + Bortezomib; first compound 0.3162 µM) was 1.02 and the relative viability (OSI-027 + Bortezomib; first compound 1 µM) was 0.87. For the same cell line, the relative viability (OSI-027 + AZD7762; first compound 0.01 µM) was 1.06, the relative viability (OSI-027 + AZD7762; first compound 0.03162 µM) was 1.09 and the relative viability (OSI-027 + AZD7762; first compound 0.1 µM) was 0.995. It also gave a relative viability (OSI-027 + AZD7762; first compound 0.3162 µM) of 0.946, a relative viability (OSI-027 + AZD7762; first compound 1 µM) of 0.486 and a relative viability (Alpelisib + Lapatinib; first compound 0.04 µM) of 1.01. The relative viability (Alpelisib + Lapatinib; first compound 0.1265 µM) was 1.02, the relative viability (Alpelisib + Lapatinib; first compound 0.4 µM) was 1.07 and the relative viability (Alpelisib + Lapatinib; first compound 1.265 µM) was 1.02. For the same cell line, the relative viability (Alpelisib + Lapatinib; first compound 4 µM) was 0.919.

PC-3 [JPC-3] gave a relative viability (Vemurafenib + Navitoclax; first compound 0.03162 µM) of 0.728, a relative viability (Vemurafenib + Navitoclax; first compound 0.3162 µM) of 0.936 and a relative viability (Vemurafenib + Navitoclax; first compound 1 µM) of 0.788. For the same cell line, the relative viability (OSI-027 + Bortezomib; first compound 0.01 µM) was 0.816, the relative viability (OSI-027 + Bortezomib; first compound 0.03162 µM) was 0.731 and the relative viability (OSI-027 + Bortezomib; first compound 0.1 µM) was 0.807. For the same cell line, the relative viability (OSI-027 + Bortezomib; first compound 0.3162 µM) was 0.877, the relative viability (OSI-027 + Bortezomib; first compound 1 µM) was 0.815 and the relative viability (OSI-027 + AZD7762; first compound 0.01 µM) was 0.778. It also gave a relative viability (OSI-027 + AZD7762; first compound 0.03162 µM) of 0.703, a relative viability (OSI-027 + AZD7762; first compound 0.1 µM) of 0.521 and a relative viability (OSI-027 + AZD7762; first compound 0.3162 µM) of 0.42. For the same cell line, the relative viability (OSI-027 + AZD7762; first compound 1 µM) was 0.505, the relative viability (Alpelisib + Lapatinib; first compound 0.04 µM) was 0.438 and the relative viability (Alpelisib + Lapatinib; first compound 0.1265 µM) was 0.555. For the same cell line, the relative viability (Alpelisib + Lapatinib; first compound 0.4 µM) was 0.404, the relative viability (Alpelisib + Lapatinib; first compound 1.265 µM) was 0.424 and the relative viability (Alpelisib + Lapatinib; first compound 4 µM) was 0.394.

PC-14 gave a relative viability (Vemurafenib + Navitoclax; first compound 0.03162 µM) of 0.915, a relative viability (Vemurafenib + Navitoclax; first compound 0.3162 µM) of 0.977 and a relative viability (Vemurafenib + Navitoclax; first compound 1 µM) of 0.937. For the same cell line, the relative viability (OSI-027 + Bortezomib; first compound 0.01 µM) was 1.03, the relative viability (OSI-027 + Bortezomib; first compound 0.03162 µM) was 0.93 and the relative viability (OSI-027 + Bortezomib; first compound 0.1 µM) was 0.955. It also gave a relative viability (OSI-027 + Bortezomib; first compound 0.3162 µM) of 0.989, a relative viability (OSI-027 + Bortezomib; first compound 1 µM) of 0.652 and a relative viability (OSI-027 + AZD7762; first compound 0.01 µM) of 0.369. For the same cell line, the relative viability (OSI-027 + AZD7762; first compound 0.03162 µM) was 0.314, the relative viability (OSI-027 + AZD7762; first compound 0.1 µM) was 0.302 and the relative viability (OSI-027 + AZD7762; first compound 0.3162 µM) was 0.35. It also gave a relative viability (OSI-027 + AZD7762; first compound 1 µM) of 0.22, a relative viability (Alpelisib + Lapatinib; first compound 0.04 µM) of 0.358 and a relative viability (Alpelisib + Lapatinib; first compound 0.1265 µM) of 0.401. It also gave a relative viability (Alpelisib + Lapatinib; first compound 0.4 µM) of 0.301, a relative viability (Alpelisib + Lapatinib; first compound 1.265 µM) of 0.265 and a relative viability (Alpelisib + Lapatinib; first compound 4 µM) of 0.235.

RERF-LC-KJ was tested, and the relative viability (Vemurafenib + Navitoclax; first compound 0.03162 µM) was 1.05, the relative viability (Vemurafenib + Navitoclax; first compound 0.1 µM) was 1.04 and the relative viability (Vemurafenib + Navitoclax; first compound 0.3162 µM) was 0.977. It also gave a relative viability (Vemurafenib + Navitoclax; first compound 1 µM) of 1.29, a relative viability (OSI-027 + Bortezomib; first compound 0.01 µM) of 1.18 and a relative viability (OSI-027 + Bortezomib; first compound 0.03162 µM) of 0.948. For the same cell line, the relative viability (OSI-027 + Bortezomib; first compound 0.1 µM) was 1.03, the relative viability (OSI-027 + Bortezomib; first compound 0.3162 µM) was 0.808 and the relative viability (OSI-027 + Bortezomib; first compound 1 µM) was 0.511. It also gave a relative viability (OSI-027 + AZD7762; first compound 0.01 µM) of 1.05, a relative viability (OSI-027 + AZD7762; first compound 0.03162 µM) of 0.742 and a relative viability (OSI-027 + AZD7762; first compound 0.1 µM) of 0.871. For the same cell line, the relative viability (OSI-027 + AZD7762; first compound 0.3162 µM) was 0.748, the relative viability (OSI-027 + AZD7762; first compound 1 µM) was 0.452 and the relative viability (Alpelisib + Lapatinib; first compound 0.04 µM) was 0.795. It also gave a relative viability (Alpelisib + Lapatinib; first compound 0.1265 µM) of 0.773, a relative viability (Alpelisib + Lapatinib; first compound 0.4 µM) of 0.867 and a relative viability (Alpelisib + Lapatinib; first compound 1.265 µM) of 0.64. For the same cell line, the relative viability (Alpelisib + Lapatinib; first compound 4 µM) was 0.735.
